# Measured values: patent publication US20070248619A1, “New pharmaceutical composition from natural materials for regulating immunity, its preparation method and use” (priority 2006, published 2007)
# Values joined by “and” are separate entries in the source; they are usually repeats but may differ in a detail not shown here. Equal values may be shown once.
# Experiments:
# C8166 cells [1] = format: cell-based; settings: C8166, three days, MTT; one value per date of experiment
# C8166 cells [2] = format: cell-based
# Description: 50□1 medium was added into half of the holes on the culture plate and 50□1 diluted supernatant fluid of HIV-1, in which the value of M.O.I was 0.0089, was added into the other half of the holes on the culture plate. At the same time, the blank control holes without the drug (the negative control) were set and the control culture holes with positive drug AZT (the positive control) were set too. They were put into 5%CO2 incubator under 37 °C for three days. The survival rate of cells was determined by MTT method. OD values (595 nm/630 nm) were determined by ELx800ELISA Reader. The following formulae were used to calculate the survival rate of normal cells caused by the drug and the protective rate of the drug for HIV-1-infected cells. Survival rate of normal cells (%) =OD value of the experimental hole/OD value of negative control hole □ 100%
# HIV-1 [3] = settings: C8166 + HIV-1, M.O.I 0.0089, three days; one value per date of experiment
# Description: 50□1 diluted supernatant fluid of HIV-1 was added to the mixture and the value of M.O.I was 0.0089. At the same time, the control hole without the drug and the control hole with positive drug AZT were set. They were put into 5%CO2 incubator under 37? for three days. The amount of syncytium was counted under an inverted microscope (100×□) (in five visual fields). IC50, that is, the concentration of the drugs inhibiting 50% syncytium formation, was determined.
# HIV-1 [4] = settings: HIV-1-infected C8166, three days, MTT
# Description: 50□1 medium was added into half of the holes on the culture plate and 50□1 diluted supernatant fluid of HIV-1, in which the value of M.O.I was 0.0089, was added into the other half of the holes on the culture plate. At the same time, the blank control holes without the drug (the negative control) were set and the control culture holes with positive drug AZT (the positive control) were set too. They were put into 5%CO2 incubator under 37 °C for three days. The survival rate of cells was determined by MTT method. OD values (595 nm/630 nm) were determined by ELx800ELISA Reader. […] Survival rate of normal cells (%) =OD value of the experimental hole/OD value of negative control hole □ 100%
# Protective rate of infected cells (%)=(OD value of the experimental hole—OD value of positive control hole)/(OD value of negative control hole—OD value of positive control hole) □ 100%
# [5] = Clinical trial in type 2 diabetes patients; format: in vivo, human; settings: 52 cases per group
# Description: According to diagnostic criteria of diabetes by WHO(1985), 104 diabetes patients were diagnosed to have type 2 diabetes. Wherein, 56 patients were male and 48 patients were female at average age of […]. All of them had diabetes for […] years. They were divided into two groups at random:
# Group A: treatment group administrated the granules of example 1
# Group B: control group administrated Micronase (produced by Shandong Boshan Pharmaceutical Factory, Batch: 990917)
# Control group: Micronase was orally taken at 30 minutes before meal in three times per day and 2.5 mg(tablet) each time.
SMILES,TC50 (concentration causing the death of 50% the cells) (C8166 cells [1]) [µg/mL],TC50 obtained by protective experiment (toxic effects on normal cells) (C8166 cells [2]) [µg/mL],IC50 inhibiting syncytium formation (head prints TC50) (HIV-1 [3]),IC50 (EC50 of protective effects on infected cells) (HIV-1 [4]) [µg/mL],"blood sugar at 2 hours after meal, mean before therapy ([5]; baseline)","fasting blood sugar, mean before therapy ([5]; baseline)","blood sugar at 2 hours after meal, mean after therapy ([5]; therapy for 3 months)","fasting blood sugar, mean after therapy ([5]; therapy for 3 months)"
Cc1cn([C@H]2C[C@H](N=[N+]=[N-])[C@@H](CO)O2)c(=O)[nH]c1=O [AZT],>50,>50,0.23 µg/mL and 0.18 µg/mL,0.15,–,–,–,–
COc1ccc(Cl)cc1C(=O)NCCc1ccc(S(=O)(=O)NC(=O)NC2CCCCC2)cc1 [Micronase],–,–,–,–,14.67 ± 1.49,9.53 ± 1.46,12.14 ± 2.53,6.53 ± 1.53
